Values after ≈ are worked out from the molar mass of the structure shown. Read-outs that look alike come from different tables or passages of the source.

In one assay the test system is S.aureus Villaluz. The assay is described as follows: In vitro antibacterial activity (MIC). It is filed as cell-based. Particulars: Staphylococcus aureus. How it is done:
(§1) The compounds of this invention have antibacterial activity against Gram-positive and Gram-negative organisms. Minimum inhibitory concentrations (MIC's) ranged from 0.4 to >200 μg/ml in in vitro testing.

Another assay deals with S.aureus SK 23390. The assay is described as follows: In vitro antibacterial activity (MIC). Format: cell-based. Particulars: Staphylococcus aureus, SK23390. How it is done:
as §1

The subject of a further assay is Proteus morgani 179. The assay is described as follows: In vitro antibacterial activity (MIC). It is filed as cell-based. The conditions noted are these: Proteus morgani 179, in vitro. How it is done:
as §1

In another assay the test system is E. coli HH 33779. The assay is described as follows: In vitro antibacterial activity (MIC). It is filed as cell-based. Particulars: Escherichia coli, HH33779. On the procedure:
as §1

Assay [1] has as its system Entero. aerog. ATCC 13048. The assay is described as follows: In vitro antibacterial activity (MIC). The conditions noted are these: Entero. aerog. ATCC 13048, in vitro; read-out: MIC. Format: cell-based. On the procedure: as §1
For another assay, the system named is Strep. faecalis HH 34358. The assay is described as follows: In vitro antibacterial activity (MIC). It is filed as cell-based. The conditions noted are these: Enterococcus faecalis, HH34358; Strep. faecalis HH 34358, in vitro. On the procedure:
as §1

The next assay has as its system Kleb. pneumo. SK 4200. The assay is described as follows: In vitro antibacterial activity (MIC). It is filed as cell-based. How it is done: as §1
The next assay has as its system Kleb. pneumo. SK 1200. The assay is described as follows: In vitro antibacterial activity (MIC). It is filed as cell-based. The conditions noted are these: Kleb. pneumo. SK 1200, in vitro; read-out: MIC. On the procedure:
as §1

The test system of the next assay is E.coli SK 12140. The assay is described as follows: In vitro antibacterial activity (MIC). The conditions noted are these: Escherichia coli, SK12140. Format: cell-based. How it is done: as §1
The next assay deals with S.aureus HH 127. The assay is described as follows: In vitro antibacterial activity (MIC). It is filed as cell-based. The conditions noted are these: Staphylococcus aureus, HH127. On the procedure: as §1
For the next assay, the system named is Klebs.pneumo. 4200. The assay is described as follows: In vivo activity (ED50) against Klebs.pneumo. 4200.
The next assay deals with E.coli 12140. The assay is described as follows: In vivo activity (ED50) against E.coli 12140.
Where [2] appears, read: S.aureus SK 23390, in vitro, read-out: MIC.
[3] abbreviates: E. coli HH 33779, in vitro, read-out: MIC.
[4] abbreviates: Kleb. pneumo. SK 4200, in vitro, read-out: MIC.
Where [5] appears, read: E.coli SK 12140, in vitro, read-out: MIC.
Setting [6] is: S.aureus HH 127, in vitro, read-out: MIC.
Where [7] appears, read: po, Klebs.pneumo. 4200, p.o., read-out: ED50.
[8] abbreviates: sc, Klebs.pneumo. 4200, s.c., read-out: ED50.
The mark [9] stands for this setting: Escherichia coli, 12140, po, E.coli 12140, p.o.
The mark [10] stands for this setting: Escherichia coli, 12140, sc, E.coli 12140, s.c.

Consider `Cc1nnc(SCC2=C(C(=O)O)N3C(=O)C(NC(=O)[C@H](N)c4ccc(OCC(=O)O)cc4)C3SC2)s1` (stereo partly drawn) [Compound No. 59216, 7-[D-α-Amino-α-(4'-carboxymethoxyphenyl)acetamido]-3-(5-methyl-1,3,4-thiadiazol-2-ylthiomethyl)-3-cephem-4-carboxylic acid], for which the MIC – broadly, the lowest concentration that inhibits growth of the organism – came out at 100 µg/mL (≈ 181 µM) in the assay on S.aureus Villaluz; 25 µg/mL (≈ 45.3 µM) in the assay with S.aureus SK 23390 (setting [2]); 200 µg/mL (≈ 363 µM) with Proteus morgani 179 (read-out: MIC); 12.5 µg/mL (≈ 22.7 µM) in the assay with E. coli HH 33779 (setting [3]); 12.5 µg/mL (≈ 22.7 µM) in [1]; 100 µg/mL (≈ 181 µM) in the assay with Strep. faecalis HH 34358. Further, the MIC in the assay on Kleb. pneumo. SK 4200 (setting [4]) was found to be 3.1 µg/mL (≈ 5.62 µM); in the assay with Kleb. pneumo. SK 1200, 6.3 µg/mL (≈ 11.4 µM); in the assay with E.coli SK 12140 (setting [5]) it was 6.3 µg/mL (≈ 11.4 µM); in the assay with S.aureus HH 127 (setting [6]), 6.3 µg/mL (≈ 11.4 µM). Moreover, the ED50 (in general, the dose that gives a 50% effect, or the effect in half of the subjects) is 21.5 mg/kg in the assay with Klebs.pneumo. 4200 (setting [7]), 4.8 mg/kg in the assay on Klebs.pneumo. 4200 (setting [8]), 25 mg/kg in the assay on E.coli 12140 (setting [9]) and 9.5 mg/kg in the assay on E.coli 12140 (setting [10]).
For `Cn1nnnc1SCC1=C(C(=O)O)N2C(=O)C(NC(=O)[C@H](N)c3ccc(SCC(=O)O)cc3)C2SC1` (stereo partly drawn) [Compound No. 70326, 7-[D-α-Amino-α-(4'-carboxymethylthiophenyl)acetamido]-3-(1-methyl-1,2,3,4-tetrazol-5-ylthiomethyl)-3-cephem-4-carboxylic acid], the MIC with Proteus morgani 179 (read-out: MIC) worked out at 6.3 µg/mL (≈ 11.4 µM). In addition, the 50% effective dose (ED50) in the assay on Klebs.pneumo. 4200 (Klebs.pneumo. 4200, p.o.) is 3 mg/kg; in the assay with Klebs.pneumo. 4200 (Klebs.pneumo. 4200, s.c.), less than 3 mg/kg; in the assay with Klebs.pneumo. 4200 (setting [7]) it was 4 mg/kg; in the assay on Klebs.pneumo. 4200 (setting [8]) it was 1.7 mg/kg; in the assay with E.coli 12140 (setting [9]), 11 mg/kg; in the assay with E.coli 12140 (setting [10]), 2.2 mg/kg.
For the compound `Cc1nnc(SCC2=C(C(=O)O)N3C(=O)C(NC(=O)[C@H](N)c4ccc(OCC(N)=O)cc4)C3SC2)s1` (stereo partly drawn) [Compound No. 71816, 7-[D-α-Amino-α-(4'-carbamylmethoxyphenyl)acetamido]-3-(5-methyl-1,3,4-thiadiazol-2-ylthiomethyl)-3-cephem-4-carboxylic acid], the MIC in the assay on S.aureus Villaluz amounted to 25 µg/mL (≈ 45.4 µM); against Proteus morgani 179 it was 200 µg/mL (≈ 363 µM); with Proteus morgani 179 (read-out: MIC), 100 µg/mL (≈ 182 µM); against E. coli HH 33779, 12.5 µg/mL (≈ 22.7 µM); against Strep. faecalis HH 34358, 25 µg/mL (≈ 45.4 µM); with Kleb. pneumo. SK 4200 (setting [4]) it was 3.1 µg/mL (≈ 5.63 µM). Moreover, the MIC in the assay on Kleb. pneumo. SK 1200 and in the assay with E.coli SK 12140 (setting [5]) was 6.3 µg/mL (≈ 11.4 µM) in each case. For the same compound, the ED50 is 6.2 mg/kg in the assay on Klebs.pneumo. 4200 (setting [7]), 7.5 mg/kg in the assay on Klebs.pneumo. 4200 (setting [8]), 12.5 mg/kg with E.coli 12140 (setting [9]) and 4.5 mg/kg with E.coli 12140 (setting [10]).
Turning to `Cc1nnc(SCC2=C(C(=O)O)N3C(=O)C(NC(=O)[C@H](N)c4ccc(NCC(N)=O)cc4)C3SC2)s1` (stereo partly drawn) [Compound No. 72546, 7-[D-α-Amino-α-(4'-carbamylmethylaminophenyl)acetamido]-3-(5-methyl-1,3,4-thiadiazol-2-ylthiomethyl)-3-cephem-4-carboxylic acid], the minimal inhibitory concentration (MIC) is 50 µg/mL (≈ 91 µM) against S.aureus Villaluz; 12.5 µg/mL (≈ 22.7 µM) against S.aureus SK 23390; more than 200 µg/mL in the assay on Proteus morgani 179 (read-out: MIC); 50 µg/mL (≈ 91 µM) with E. coli HH 33779 (setting [3]); 50 µg/mL (≈ 91 µM) in assay [1]; 50 µg/mL (≈ 91 µM) in the assay with Strep. faecalis HH 34358. Also, the minimum inhibitory concentration (MIC) against Kleb. pneumo. SK 4200 stood at 12.5 µg/mL (≈ 22.7 µM); with Kleb. pneumo. SK 1200, 25 µg/mL (≈ 45.5 µM); with E.coli SK 12140 (setting [5]) it was 25 µg/mL (≈ 45.5 µM); against S.aureus HH 127, 12.5 µg/mL (≈ 22.7 µM).
Take `Cc1nnc(SCC2=C(C(=O)O)N3C(=O)C(NC(=O)[C@H](N)c4ccc(SCC(N)=O)cc4)C3SC2)s1` (stereo partly drawn) [Compound No. 86526, 7-[D-α-Amino-α-(4'-carbamylmethylthiophenyl)acetamido]-3-(5-methyl-1,3,4-thiadiazol-2-ylthiomethyl)-3-cephem-4-carboxylic acid]: the minimum inhibitory concentration (MIC) with S.aureus Villaluz worked out at 25 µg/mL (≈ 44.1 µM); in the assay with S.aureus SK 23390 (setting [2]), 3.1 µg/mL (≈ 5.47 µM); in the assay on E. coli HH 33779 (setting [3]) it was 25 µg/mL (≈ 44.1 µM); in assay [1], 100 µg/mL (≈ 176 µM); in the assay with Strep. faecalis HH 34358 it was 50 µg/mL (≈ 88.2 µM); in the assay with Kleb. pneumo. SK 4200 (setting [4]), 12.5 µg/mL (≈ 22.1 µM). The figures for the MIC in the assay on Kleb. pneumo. SK 1200, in the assay with E.coli SK 12140 (setting [5]) and in the assay on S.aureus HH 127 (setting [6]) were 6.3 µg/mL (≈ 11.1 µM), 25 µg/mL (≈ 44.1 µM) and 6.3 µg/mL (≈ 11.1 µM), respectively. Also, the ED50 was 10 mg/kg with Klebs.pneumo. 4200 (setting [7]), 7.2 mg/kg in the assay with Klebs.pneumo. 4200 (setting [8]), 42 mg/kg with E.coli 12140 (setting [9]) and 18 mg/kg in the assay with E.coli 12140 (setting [10]).
`CC1=C(C(=O)O)N2C(=O)C(NC(=O)[C@H](N)c3ccc(SCC(=O)O)cc3)C2SC1` (stereo partly drawn) [compound 99316, 7-[D-α-Amino-α-(4'-carboxymethylthiophenyl)acetamido]-3-desacetoxycephalosporanic acid]: the MIC with S.aureus Villaluz was 100 µg/mL (≈ 229 µM); with S.aureus SK 23390, 12.5 µg/mL (≈ 28.6 µM); in the assay with Proteus morgani 179 (read-out: MIC), more than 200 µg/mL; with E. coli HH 33779 (setting [3]), 50 µg/mL (≈ 114 µM); in assay [1], 50 µg/mL (≈ 114 µM); against Strep. faecalis HH 34358, more than 200 µg/mL. Also, the MIC came out at 12.5 µg/mL (≈ 28.6 µM) against Kleb. pneumo. SK 4200, 6.3 µg/mL (≈ 14.4 µM) in the assay with Kleb. pneumo. SK 1200, 12.5 µg/mL (≈ 28.6 µM) against E.coli SK 12140 and 12.5 µg/mL (≈ 28.6 µM) with S.aureus HH 127. Also, the results for the ED50 in the assay on Klebs.pneumo. 4200 (setting [7]), in the assay on E.coli 12140 (setting [9]) and in the assay on E.coli 12140 (setting [10]) were 15.5 mg/kg, 42 mg/kg and 25 mg/kg, respectively.

These data come from patent US4022895A, “Substituted phenylglycylcephalosporins” (SmithKline Corporation, priority 1975, dated 1977).
